{"source": "patent US10017524B2", "about": "“Compound and pharmaceutical composition for neuropsychological disorder or malignant tumor” (KYOTO UNIVERSITY, priority 2012, dated 2018)", "key": {"[1]": {"system": "phosphorylation of a threonine residue at position 212 of tau protein by DYRK1A protein", "experiment": "Inhibitory activity on phosphorylation of tau protein in cultured cells expressing tau and DYRK1A (western blot, Thr212)", "type": "cell-based", "details": "compounds of 10 μM, phospho-Thr212 tau, cells expressing tau and DYRK1A", "procedure": "The inhibitory activity of the compounds synthesized in the production examples on the phosphorylation of tau protein was evaluated by an evaluation system using the following cultured cells.\nThe cultured cells that can induce the expressions of tau protein and DYRK1A protein individually and that allow the phosphorylation of the tau protein to be evaluated depending on the activity of the DYRK1A protein were used in the evaluation system. […] Therefore, the inhibitory activity on the phosphorylation of the tau protein can be evaluated by inducing the expressions of both the tau protein and the DYRK1A protein, and evaluating the degree of phosphorylation of a threonine residue at position 212 of the tau protein.\nThe compounds 1, 4, and 6 to 9 (10 μM) were added to the evaluation system, and the phosphorylation of the tau protein was detected with the antibody that specifically recognizes the phosphorylation of a threonine residue at position 212 of the tau protein. […] The “control” represents the result of adding no compound.\nThe inhibitory activity of the compounds 1 and 2 on the phosphorylation of tau protein was evaluated in the same manner as the Experimental example 1.\nThe “control” represents the result of adding no compound.\nThe inhibitory activity of the compounds 3, 6, and 9 to 15 on the phosphorylation of tau protein was evaluated in the same manner as the experimental example 1. FIGS. 7 to 9 show an example of the results."}, "[2]": {"system": "Down's syndrome-derived acute megakaryoblastic leukemia (AMKL) cells KPAM1", "experiment": "Inhibition of growth of cancer cells (Alamar Blue)", "type": "cell-based", "details": "KPAM1, cultivation for 5 days", "procedure": "(§1) Specifically, the cells were seeded on a 24 Well plate, and the compounds at a predetermined concentration were added. After cultivation for 5 days, the number of cells was calculated by detecting the fluorescence intensity with Alamar Blue. The culture medium containing the compounds was replaced every day. FIGS. 10 to 12 show an example of the results."}, "[3]": {"system": "retinoblastoma cell lines WERI", "experiment": "Inhibition of growth of cancer cells (Alamar Blue)", "type": "cell-based", "procedure": "as §1"}, "[4]": {"system": "human lung adenocarcinoma-derived cell lines (PC-9)", "experiment": "Growth inhibition, microscopic observation", "type": "cell-based", "details": "PC-9 lines, microscope"}, "[5]": {"system": "PC-9-GR-step lines (gefitinib-resistant sub-lines of PC-9)", "experiment": "Growth inhibition, microscopic observation", "type": "cell-based, human", "details": "microscope"}, "[6]": {"system": "PC-9-GR-high lines", "experiment": "Growth inhibition, microscopic observation", "type": "cell-based, human", "details": "microscope"}, "[7]": {"system": "MDA-MB-453 human breast cancer cells (triple-negative)", "experiment": "Growth inhibition, adherent and non-adherent culture (Alamar Blue)", "type": "cell-based", "details": "MDA-MB-453, cells cultured to prevent adhering", "procedure": "as §1\n(§2) In addition, the effect was also confirmed when the target cells were cultured to prevent them from adhering to each other."}, "[8]": {"system": "MDA-MB-468 human breast cancer cells (triple-negative)", "experiment": "Growth inhibition, adherent and non-adherent culture (Alamar Blue)", "type": "cell-based", "details": "MDA-MB-468, cells cultured to prevent adhering", "procedure": "as §1, §2"}}}
{"smiles": "CCN1/C(=C/C(C)=O)Sc2ccc3oc4ccccc4c3c21", "note": "[Compound 3, (Z)-1-[1-ethylbenzo[2,3]benzofuro[4,5-d]thiazol-2(1H)-ylidene]propan-2-one]", "values": [{"measurement": "inhibitory effect on the phosphorylation of the tau protein", "setting": "[1]", "result": "inhibitory effect"}, {"measurement": "inhibitory effect on the growth of the cancer cells", "setting": "[2]", "result": "excellent inhibitory effect"}, {"measurement": "inhibitory effect on the growth of the cancer cells", "setting": "[3]", "result": "inhibitory effect"}, {"measurement": "apoptosis-inducing activity on the cancer cells", "setting": "[4]", "result": "excellent apoptosis-inducing activity"}, {"measurement": "apoptosis-inducing activity on the cancer cells", "setting": "[5]", "result": "excellent apoptosis-inducing activity"}, {"measurement": "apoptosis-inducing activity on the cancer cells", "setting": "[6]", "result": "excellent apoptosis-inducing activity"}, {"measurement": "inhibitory effect on the anchorage-independent growth", "setting": "[7]", "result": "inhibitory effect"}, {"measurement": "inhibitory effect on the anchorage-independent growth", "setting": "[8]", "result": "inhibitory effect"}]}
